Several values for one entry are separate records, joined by “and”; a condition that tells them apart may be missing. Identical values can stand only once.
System: KRAS-mutant PDC complex spheroid viability
Assay: Anticancer human tumor 186277-243-T-J2-PDC patient-derived colon adenocarcinoma cell line growth inhibition [KRAS2]
Settings: for viability, T/C: stronger effect = lower value
Outline: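 Combination screen of spheroid viability in tumor-cell co-cultures with endothelial (HUVEC) and mesenchymal stem cell stroma. Each agent was tested in half-log dilutions, topping at clinical Cmax or at 10 microM without a known Cmax.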

[1] = curve of first compound, second compound 0.0316 µM
[2] = curve of first compound, second compound 0.1 µM
[3] = curve of first compound, second compound 0.316 µM
[4] = curve of first compound, second compound 1 µM
[5] = curve of first compound, second compound 3.16 µM
[6] = second compound 0.0316 µM, first compound 0.0316 µM
[7] = second compound 0.1 µM, first compound 0.000316 µM
[8] = second compound 0.1 µM, first compound 0.001 µM
[9] = second compound 0.1 µM, first compound 0.00316 µM
[10] = second compound 0.1 µM, first compound 0.01 µM
[11] = second compound 0.1 µM, first compound 0.0316 µM
[12] = second compound 0.316 µM, first compound 0.000316 µM
[13] = second compound 0.316 µM, first compound 0.001 µM
[14] = second compound 0.316 µM, first compound 0.00316 µM
[15] = second compound 0.316 µM, first compound 0.01 µM
[16] = second compound 0.316 µM, first compound 0.0316 µM
[17] = second compound 1 µM, first compound 0.000316 µM
[18] = second compound 1 µM, first compound 0.001 µM
[19] = second compound 1 µM, first compound 0.00316 µM
[20] = second compound 1 µM, first compound 0.01 µM
[21] = second compound 1 µM, first compound 0.0316 µM
[22] = second compound 3.16 µM, first compound 0.000316 µM
[23] = second compound 3.16 µM, first compound 0.001 µM
[24] = second compound 3.16 µM, first compound 0.00316 µM
[25] = second compound 3.16 µM, first compound 0.01 µM
[26] = second compound 3.16 µM, first compound 0.0316 µM
[27] = curve of first compound, second compound 10 µM
[28] = second compound 0.1 µM, first compound 0.1 µM
[29] = second compound 0.1 µM, first compound 0.316 µM
[30] = second compound 0.1 µM, first compound 1 µM
[31] = second compound 0.1 µM, first compound 3.16 µM
[32] = second compound 0.1 µM, first compound 10 µM
[33] = second compound 0.316 µM, first compound 0.1 µM
[34] = second compound 0.316 µM, first compound 0.316 µM
[35] = second compound 0.316 µM, first compound 1 µM
[36] = second compound 0.316 µM, first compound 3.16 µM
[37] = second compound 0.316 µM, first compound 10 µM
[38] = second compound 1 µM, first compound 0.1 µM
[39] = second compound 1 µM, first compound 0.316 µM
[40] = second compound 1 µM, first compound 1 µM
[41] = second compound 1 µM, first compound 3.16 µM
[42] = second compound 1 µM, first compound 10 µM
[43] = second compound 3.16 µM, first compound 0.1 µM
[44] = second compound 3.16 µM, first compound 0.316 µM
[45] = second compound 3.16 µM, first compound 1 µM
[46] = second compound 3.16 µM, first compound 3.16 µM
[47] = second compound 3.16 µM, first compound 10 µM
[48] = second compound 10 µM, first compound 0.0316 µM
[49] = second compound 10 µM, first compound 0.1 µM
[50] = second compound 10 µM, first compound 0.316 µM
[51] = second compound 10 µM, first compound 1 µM
[52] = second compound 10 µM, first compound 3.16 µM
[53] = second compound 10 µM, first compound 10 µM
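Wherever viability, T/C is given: viability read after seven days of compound exposure; 100% = DMSO vehicle-treated spheroids so lower means less viable.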

## CC(=O)Nc1cccc(-n2c(=O)n(C3CC3)c(=O)c3c(Nc4ccc(I)cc4F)n(C)c(=O)c(C)c32)c1 + C=CC(=O)N1CCN(c2nc(OCC3CCCN3C)nc3c2CCN(c2cccc4cccc(C)c24)C3)CC1CC#N
[1]
  IC50: 0.000749 µM
[2]
  IC50: 0.000668 µM
[3]
  IC50: 0.00067 µM
[4]
  IC50: 0.000483 µM
[5]
  IC50: < 0.0001 µM
Second compound 0.0316 µM, first compound 0.0001 µM
  viability, T/C: 98.2%
Second compound 0.0316 µM, first compound 0.000316 µM
  viability, T/C: 115%
Second compound 0.0316 µM, first compound 0.001 µM
  viability, T/C: 30.9%
Second compound 0.0316 µM, first compound 0.00316 µM
  viability, T/C: 7.61%
Second compound 0.0316 µM, first compound 0.01 µM
  viability, T/C: 2.46%
[6]
  viability, T/C: 1.21%
Second compound 0.1 µM, first compound 0.0001 µM
  viability, T/C: 88.8%
[7]
  viability, T/C: 103%
[8]
  viability, T/C: 25.1%
[9]
  viability, T/C: 6.76%
[10]
  viability, T/C: 2.36%
[11]
  viability, T/C: 1.26%
Second compound 0.316 µM, first compound 0.0001 µM
  viability, T/C: 103%
[12]
  viability, T/C: 99%
[13]
  viability, T/C: 23.8%
[14]
  viability, T/C: 5.26%
[15]
  viability, T/C: 2.18%
[16]
  viability, T/C: 1.26%
Second compound 1 µM, first compound 0.0001 µM
  viability, T/C: 105%
[17]
  viability, T/C: 74%
[18]
  viability, T/C: 8.66%
[19]
  viability, T/C: 2.88%
[20]
  viability, T/C: 1.12%
[21]
  viability, T/C: 0.75%
Second compound 3.16 µM, first compound 0.0001 µM
  viability, T/C: 0.32%
[22]
  viability, T/C: 0.18%
[23]
  viability, T/C: 0.13%
[24]
  viability, T/C: 0.12%
[25]
  viability, T/C: 0.11%
[26]
  viability, T/C: 0.19%

## CC(C)NCC(C(=O)N1CCN(c2ncnc3c2C(C)CC3O)CC1)c1ccc(Cl)cc1 (stereo unspecified) + CC1OCC2(CCN(c3cnc(Sc4ccnc(N)c4Cl)c(N)n3)CC2)C1N
[2]
  IC50: 0.498 µM
[3]
  IC50: 0.389 µM
[4]
  IC50: 0.268 µM
[5]
  IC50: 0.134 µM
[27]
  IC50: 0.0572 µM
[11]
  viability, T/C: 110%
[28]
  viability, T/C: 98.2%
[29]
  viability, T/C: 55.2%
[30]
  viability, T/C: 34.9%
[31]
  viability, T/C: 25.7%
[32]
  viability, T/C: 9.35%
[16]
  viability, T/C: 134%
[33]
  viability, T/C: 96.9%
[34]
  viability, T/C: 54.3%
[35]
  viability, T/C: 26.5%
[36]
  viability, T/C: 17.3%
[37]
  viability, T/C: 7.17%
[21]
  viability, T/C: 115%
[38]
  viability, T/C: 94%
[39]
  viability, T/C: 41.5%
[40]
  viability, T/C: 16%
[41]
  viability, T/C: 10.7%
[42]
  viability, T/C: 4.01%
[26]
  viability, T/C: 86.5%
[43]
  viability, T/C: 58.3%
[44]
  viability, T/C: 25.6%
[45]
  viability, T/C: 8.57%
[46]
  viability, T/C: 3.93%
[47]
  viability, T/C: 2.37%
[48]
  viability, T/C: 65.1%
[49]
  viability, T/C: 35.8%
[50]
  viability, T/C: 9.46%
[51]
  viability, T/C: 3.07%
[52]
  viability, T/C: 1.79%
[53]
  viability, T/C: 1.34%

## CCNC(=O)CC1N=C(c2ccc(Cl)cc2)c2cc(OC)ccc2-n2c(C)nnc21 (stereo unspecified)
Compound 0.0316 µM
  viability, T/C: 96.3% [middle of 5 runs]
Compound 0.1 µM
  viability, T/C: 101% (4×) and 92.8%
Curve of compound
  IC50: > 10 µM and 5.78 µM

## COc1cc2nc(C)nc(NC(C)c3cc(N)cc(C(F)(F)F)c3)c2cc1OC1CCOC1 (stereo unspecified)
Compound 1 µM
  viability, T/C: 101% [middle of 17 runs]
Compound alone, run of 07/12/2021
  IC50: > 10 µM
Compound alone, run of 07/19/2021
  IC50: > 10 µM

## COC(=O)c1ccc2c(C(=Nc3ccc(N(C)C(=O)CN4CCN(C)CC4)cc3)c3ccccc3)c(O)[nH]c2c1 + COc1cc2nc(C)nc(NC(C)c3cc(N)cc(C(F)(F)F)c3)c2cc1OC1CCOC1
[2]
  IC50: 2.19 µM
[3]
  IC50: 2.21 µM
[4]
  IC50: 1.97 µM
[5]
  IC50: 1.45 µM
[27]
  IC50: 0.463 µM
[11]
  viability, T/C: 99%
[28]
  viability, T/C: 108%
[29]
  viability, T/C: 106%
[30]
  viability, T/C: 119%
[31]
  viability, T/C: 22.8%
[32]
  viability, T/C: 13.4%
[16]
  viability, T/C: 87.2%
[33]
  viability, T/C: 102%
[34]
  viability, T/C: 100%
[35]
  viability, T/C: 104%
[36]
  viability, T/C: 28.3%
[37]
  viability, T/C: 10.9%
[21]
  viability, T/C: 95.6%
[38]
  viability, T/C: 98.6%
[39]
  viability, T/C: 106%
[40]
  viability, T/C: 115%
[41]
  viability, T/C: 12.7%
[42]
  viability, T/C: 8.29%
[26]
  viability, T/C: 96.6%
[43]
  viability, T/C: 94%
[44]
  viability, T/C: 114%
[45]
  viability, T/C: 72%
[46]
  viability, T/C: 5.65%
[47]
  viability, T/C: 0.14%
[48]
  viability, T/C: 74.5%
[49]
  viability, T/C: 81.5%
[50]
  viability, T/C: 62.8%
[51]
  viability, T/C: 22.1%
[52]
  viability, T/C: 0.18%
[53]
  viability, T/C: 0.19%

## Cn1ncnc1[C@H]1c2n[nH]c(=O)c3cc(F)cc(c23)N[C@@H]1c1ccc(F)cc1 + CNCc1ccccc1-c1csc(C(C)Nc2nc(C)nc3cc(OC)c(OC)cc23)c1
[2]
  IC50: > 0.1 µM
[3]
  IC50: > 0.1 µM
[4]
  IC50: > 0.1 µM
[5]
  IC50: < 0.000316 µM
[27]
  IC50: < 0.000316 µM
[7]
  viability, T/C: 113%
[8]
  viability, T/C: 109%
[9]
  viability, T/C: 109%
[10]
  viability, T/C: 101%
[11]
  viability, T/C: 83.8%
[28]
  viability, T/C: 68.9%
[12]
  viability, T/C: 117%
[13]
  viability, T/C: 106%
[14]
  viability, T/C: 115%
[15]
  viability, T/C: 89.3%
[16]
  viability, T/C: 76.4%
[33]
  viability, T/C: 68.7%
[17]
  viability, T/C: 112%
[18]
  viability, T/C: 110%
[19]
  viability, T/C: 97.9%
[20]
  viability, T/C: 86%
[21]
  viability, T/C: 70.4%
[38]
  viability, T/C: 59.5%
[22]
  viability, T/C: 25.5%
[23]
  viability, T/C: 0.4%
[24]
  viability, T/C: 28.8%
[25]
  viability, T/C: 12.7%
[26]
  viability, T/C: 14.5%
[43]
  viability, T/C: 10.9%
Second compound 10 µM, first compound 0.000316 µM
  viability, T/C: 0.14%
Second compound 10 µM, first compound 0.001 µM
  viability, T/C: 0.14%
Second compound 10 µM, first compound 0.00316 µM
  viability, T/C: 0.14%
Second compound 10 µM, first compound 0.01 µM
  viability, T/C: 0.13%
[48]
  viability, T/C: 0.13%
[49]
  viability, T/C: 0.21%

## CCNC(=O)CC1N=C(c2ccc(Cl)cc2)c2cc(OC)ccc2-n2c(C)nnc21 (stereo unspecified) + C=CC(=O)N1CCN(c2nc(OCC3CCCN3C)nc3c2CCN(c2cccc4cccc(C)c24)C3)CC1CC#N
[1]
  IC50: > 10 µM
[2]
  IC50: > 10 µM
[3]
  IC50: > 10 µM
[4]
  IC50: 8.18 µM
[5]
  IC50: < 0.0316 µM
[6]
  viability, T/C: 100%
Second compound 0.0316 µM, first compound 0.1 µM
  viability, T/C: 102%
Second compound 0.0316 µM, first compound 0.316 µM
  viability, T/C: 118%
Second compound 0.0316 µM, first compound 1 µM
  viability, T/C: 171%
Second compound 0.0316 µM, first compound 3.16 µM
  viability, T/C: 151%
Second compound 0.0316 µM, first compound 10 µM
  viability, T/C: 118%
[11]
  viability, T/C: 106%
[28]
  viability, T/C: 99%
[29]
  viability, T/C: 113%
[30]
  viability, T/C: 169%
[31]
  viability, T/C: 154%
[32]
  viability, T/C: 116%
[16]
  viability, T/C: 99.9%
[33]
  viability, T/C: 96.9%
[34]
  viability, T/C: 125%
[35]
  viability, T/C: 149%
[36]
  viability, T/C: 130%
[37]
  viability, T/C: 102%
[21]
  viability, T/C: 97%
[38]
  viability, T/C: 107%
[39]
  viability, T/C: 138%
[40]
  viability, T/C: 138%
[41]
  viability, T/C: 93.6%
[42]
  viability, T/C: 40.8%
[26]
  viability, T/C: 1.32%
[43]
  viability, T/C: 10.2%
[44]
  viability, T/C: 1.62%
[45]
  viability, T/C: 1.12%
[46]
  viability, T/C: 0.2%
[47]
  viability, T/C: 0.24%

From PubChem BioAssay AID1963875 (Molecular Pharmacology Branch, DTP, NCI, 2024)
